Columns and labels:
[1] = tested on: detached leaves of Buddleja davidii; experiment: Stickiness of a solution on the leaf (washing off); settings: 2.5% with 3% titanium dioxide; washed with 14 g water
Source text: A solution is applied by spraying on detached leaves of Buddleja davidii disposed flat on a support.
The leaves were next left at ambient temperature until the sprayed solutions had completely evaporated.
14 grams of water are next sprayed onto the leaves held vertical to simulate rain. The titanium residues on the leaf are next observed.

maize seeds = experiment: Root growth (rootlets) of maize seeds; format: in vivo; settings: maize seeds immersed 1 h in 2.5% solution; after two days
Experimental: The seeds are next dried in a heating tunnel at 45° C. for one hour. Four batch repetitions of 16 seeds are deposited on Petri dishes containing a medium composed of 2% Agar Agar and 98% water.
The Petri dishes are kept at ambient temperature and in darkness.

[2] = pH modification of the mixture; format: physicochemical; settings: increasing concentration of the 2.5% sucrose stearate solution added to a solution at pH 9.4
parsley seeds = experiment: Germination of parsley seeds after immersion treatment; format: in vivo; settings: parsley seeds immersed 1 h in 0.75% solution
Experimental: The seeds are next dried in a heating tunnel at 45° C. for one hour. Two batch repetitions of 48 seeds are deposited on Petri dishes containing a medium composed of 2% Agar Agar and 98% water.
The Petri dishes are kept at ambient temperature and in darkness. Each day the number of seeds that have germinated (having a radicle) is counted.

[3] = tested on: winter barley (Sobell variety); experiment: Yield of winter barley in climate controlled chamber; format: in vivo; settings: 3 l/ha of 3% solution sprayed at commencement of tillering
Experimental: Assays in a climate controlled chamber (temperature 22° C./20° C., photoperiod 16 h/8 h, 25,000 lux) were carried out on winter barley (Sobell variety, Arvalis). The barley was sowed in containers of 1 meter by 1 meter.
The plants were then watered every 2 weeks with the same amount of water for both control batch and treated batch.
The yields were then calculated as the ratio of the weight of harvested seeds to the sowed area. This ratio is expressed in q/ha.

soybeans = experiment: Germination of soybeans after immersion treatment; format: in vivo; settings: soybeans immersed 1 h in 0.75% solution
Experimental: The beans are next dried in a heating tunnel at 45° C. for one hour. Four batch repetitions of 15 beans are deposited on Petri dishes containing a medium composed of 2% Agar Agar and 98% water.
The Petri dishes are kept at ambient temperature and in darkness. Each day the number of germinated beans (having a radicle) is counted.

[4] = Drift limitation: size of drops after spraying; format: physicochemical; settings: 2.5% with 5% titanium dioxide; 2, 4 and 8 bars
Source text: Increasing pressures (2, 4 and 8 bars) were used in order to test different conditions (FIG. 21: a, b and c respectively). The greater the pressure the more numerous and fine were the drops.

titanium dioxide residue on the leaf after washing [1]: still clearly visible | pH at which the mixture stabilizes [2]: 5.25
Substance: sucrose stearate
rootlets on the germinated seeds (maize seeds): rootlet presence is observed | increase of the germination kinetics on average (parsley seeds): 10% | germinated seeds, treated batch compared with the control batch (parsley seeds; between 4 days and 6 days): 2 times | Yield [3]: 67.9 q/ha | yield increase [3]: 25% | increase of the germination kinetics on average (soybeans): 25% | germinated seeds, treated batch compared with the control batch (soybeans; after 1 day): 4 times | size of the drops after spraying [4]: enables an increase the size of the drops

Source: patent US20200236933A1, “USE OF A NON-IONIC SURFACTANT WHICH IS A POLYOL DERIVATIVE AS A PLANT GROWTH STIMULATING AGENT OR AS AN ADJUVANT” (priority 2017, published 2020)
